assay: physchem; details: octan-1-ol/water, pH 7.4

Row | SMILES | logD
1 | C[C@@H]1CN(C(=O)OC(C)(C)C)CCN1c1ncc(OCc2ccc(S(C)(=O)=O)cc2)cn1 | 3.6
2 | O=C(O)CCC(=O)N1CCC(c2nc(-c3cccs3)no2)CC1 | -1.27
3 | O=C(N[C@H]1CN2CCC1CC2)c1ccc(-c2ccccc2)s1 | 1.9
4 | O=c1c2ccccc2nc2n1CCS2(=O)=O | 0.8
5 | CC(O)C(C)OC(=O)[C@@H]1CC2c3cccc4c3c(cn4C(C)C)CC2N(C)C1 (some centres not stated) | 2.8
6 | CCN(C)C(=O)c1ccc([C@H](c2cccc(NC(=O)C3CCC3)c2)N2CCN(Cc3cccnc3)CC2)cc1 | 3.27
7 | Cc1ccc(CN2[C@@H]3CC[C@H]2C[C@@H](Oc2cccc(C(N)=O)c2)C3)s1 | 2.39
8 | O=c1cc(O)oc2c1c(=O)n(Cc1ccccc1)c1ccccc21 | 1.97

same assay, conditions: octan-1-ol/water, pH 7.4, LogD7.4

Row | SMILES | logD
9 | C[C@@](O)(C(=O)Nc1ccc(S(=O)(=O)NCCN2CCOCC2)cc1Cl)C(F)(F)F | 2.14
10 | CCOc1ccc2nc(NC(=O)CC)sc2c1 | 3.4
11 | O=c1c2ccc(O)cc2ncn1-c1ccc(O)cc1 | 1.6
12 | Cc1cc(Oc2ccnc(Nc3ccc(N4CCOCC4)cc3)c2)c(-c2ccccn2)nc1C | 2.59
13 | Brc1cnc(NCc2ccccc2)nc1Nc1cc(C2CC2)n[nH]1 | 4.11
14 | C[C@H](CO)Nc1nc(SCc2cccc(Cl)c2)nc2nc(N)sc12 | 3.31
15 | Nc1cc2n[nH]c(=O)n2c2cc(-c3cccs3)ccc12 | 3.26
16 | CNC1(C)C2CCC(C2)C1(C)C (configuration not stated) [MECAMYLAMINE] | -0.84
17 | COc1ccccc1N1CCN(Cc2c(Br)c(=O)n(-c3ccccc3)n2C)CC1 | 2.5
18 | Cc1ccc2c(c1)c(-c1ccnc3cc(C(F)(F)F)ccc13)c(C)n2CC(=O)O | 1.78
19 | CC[C@H](NC(=O)c1c(CN(C)C)c(-c2ccccc2)nc2ccccc12)c1ccccc1 | 4.18
20 | CCC(c1nc2ccoc2c(=O)n1Cc1ccccc1)N(CCCN)C(=O)c1ccc(C)cc1 (configuration not stated) | 1.37
21 | O=c1ccnc2ccccn12 | 0.2
22 | Oc1ccc(C(c2ccc(O)cc2)C(Cl)(Cl)Cl)cc1 | 3.86
23 | CN(C)CCNCc1ccc(Nc2ncc3cc(-c4ccncc4)ccc3n2)cc1 | 1.4
24 | O=c1oc2ccccc2cc1-c1ccc(O)cc1 | 3
25 | CC(O)(C(=O)Nc1ccc(S(=O)(=O)c2ccccc2)cc1)C(F)(F)F (configuration not stated) | 2.98
26 | O=C(NC1Cc2ccccc2N(C[C@@H](O)CO)C1=O)c1cc2cc(Cl)sc2[nH]1 (some centres not stated) | 3.37
27 | O=c1[nH]c2cc(Cl)c(Cl)c([N+](=O)[O-])c2[nH]c1=O [LICOSTINEL] | 0.21
28 | CC1CN(Cc2cc(Cl)ccc2OCC(=O)O)CCN1S(=O)(=O)c1ccccc1 (configuration not stated) | 0.31
29 | Cc1ncc(-c2nc(Nc3ccc(C(N)=O)c(F)c3)ncc2F)n1C(C)C | 3.14
30 | CN[C@H]1CCN(C(=O)c2ccc(Nc3nccc(-c4cnc(C)n4C(C)C)n3)cc2)C1 | 1.22
31 | N#CCc1c[nH]c2ccc(OCc3ccccc3)cc12 | 3.71
32 | CC(C)CCCC(C)/N=c1\ccn(Cc2ccccc2)c2cc(Cl)ccc12 (configuration not stated) | 1.58
33 | O=C(NCCN1CCCC1)c1ccc(Nc2ncc3cc(-c4ccncc4)ccc3n2)cc1 | 2.39

Row | SMILES | logD
34 | Cn1cc(-c2ccc(O)cc2)c(=O)c2c(O)cc(O)cc21 | 2.2
35 | CCN(CC)CCOC(=O)C1(C2CCCCC2)CCCCC1 [DICYCLOMINE] | 3.72
36 | COc1ccc2c(C)cc(N[C@H]3CCC[C@H](NCc4cccc(OC(F)(F)F)c4)C3)nc2c1 | 3.61
37 | CC(C)OC(=O)N1CCC(Oc2ncnc3c2CCN3c2ccc(S(C)(=O)=O)cc2F)CC1 | 3.4
38 | CN(C)C(=O)c1ccc(CN2CCc3cc4nc(N)sc4cc3CC2)cc1 | 1.72
39 | CN1Cc2c(N)cccc2[C@@H](c2ccccc2)C1 | 2.11
40 | CC1(O)CN(S(=O)(=O)c2ccc3c(C(=O)NC[C@@H](O)CN4CCC(Oc5ccc(Cl)c(Cl)c5)CC4)c[nH]c(=O)c3c2)C1 | 2.54
41 | O=c1[nH]n(C(c2ccccn2)C2CC2)c(=O)c2c(O)c3ccc(Cl)cc3nc12 (configuration not stated) | 1
42 | Cc1c(CCC(=O)O)c(=O)oc2c(C)c(O)ccc12 | -0.3
43 | C[C@@H]1CN(c2noc(C(F)(F)F)n2)CCN1c1ncc(OCc2ccncc2C#N)cn1 | 3.95
44 | CNC(=O)c1cccc(NC(=O)Nc2cccc(C#N)c2)c1CN1CCC(Cc2ccc(F)cc2)CC1 | 3.97
45 | Cc1[nH]c2nc(NCc3cccc(Br)c3)nn2c(=O)c1Cc1ccccc1 | 3.68
46 | NS(=O)(=O)c1cc(C(=O)O)cc(N2CCCC2)c1Oc1ccccc1 [PIRETANIDE] | -0.94
47 | O=[N+]([O-])c1ccc2[nH]c(-c3ccccn3)nc2c1 | 2.8
48 | CC1CC(=O)Nc2ccccc2N1 (configuration not stated) | 0.56
49 | O=C(N[C@@H](Cc1cccc(OCCCNc2ccccn2)c1)C(=O)O)c1c(Cl)cccc1Cl | 0.16
50 | CCCSc1c(C(=O)NC2CCCCC2)cnn1-c1ccc(C(=O)O)cc1 | 0.64
51 | CCN(CCCOCCOCCc1ccccc1)CCc1ccc(O)c2nc(O)sc12 | 2.45
52 | Clc1cccc(Cl)c1/C(=C/n1cncn1)OC1CCCCCC1 | 4.1
53 | Cc1ccc(F)c(Nc2ccnc(Nc3ccc(OCC(O)CN(C)C)cc3)n2)c1 (configuration not stated) | 2.1
54 | Cc1cc(NC(=O)Nc2ccc(Cl)cc2)n(-c2ccccc2)n1 | 4.15
55 | NC(=O)Nc1sc(-c2ccccc2)cc1C(=O)N[C@H]1CCCNC1 | 1.27
56 | CNC(=O)c1ccc(Nc2ncc(F)c(-c3cnc(C)n3C(C)C)n2)cc1F | 3.31
57 | c1ccc2cnccc2c1 [ISOQUINOLINE] | 1.6
58 | Nc1ccc(/N=N/c2ccccc2)c(N)n1 [PHENAZOPYRIDINE] | 3.22

Row | SMILES | logD
59 | C[C@@H]1CN(C(=O)[C@@](C)(O)C(F)(F)F)[C@@H](C)CN1C(=O)c1ccc(C#N)cc1 | 1.5
60 | C#CCN(c1ccnc(Nc2ccc(OCC(O)CN(C)C)cc2)n1)c1cc(Cl)ccc1Cl (configuration not stated) | 3.2
61 | CC(C)CC(c1ccncc1)n1[nH]c(=O)c2nc3cc(Cl)ccc3c(O)c2c1=O (configuration not stated) | 1.64
62 | CC(C)Cn1c(=O)n(C)c(=O)c2c(C(=O)N3CC[C@@H](O)C3)c(Cc3cccc4ncccc34)sc21 | 1.98
63 | Cc1ccc(CO)cc1N(C)c1ccnc(Nc2cc(C(=O)N3CCOCC3)cc(N3CCOCC3)c2)n1 | 2.2
64 | NC(=O)c1cccc(OC2CCN(Cc3ccccc3)CC2)c1 | 1.92
65 | Cc1cc(Oc2ccnc(Nc3cccc(N4CCOCC4)c3)c2)c(-c2ccccn2)nc1C | 3.27
66 | CCCc1c(C(=O)Nc2cc(C)on2)cnn1-c1ccccc1 | 3.7
67 | O=C(Oc1ccccc1O)c1cccc2ccccc12 | 4.4
68 | COc1ncc(-c2ccc3nccc(-c4ccnnc4)c3c2)cc1NS(=O)(=O)c1ccc(F)cc1F [OMIPALISIB] | 2.5
69 | CC(C)Nc1ccc2cnn(-c3cncc(-n4ccc(CC(=O)O)c4)n3)c2c1 | 1.24
70 | Cn1cncc1-c1c2c(=O)n(CC3CC3)c(=O)n(CC3CC3)c2nn1Cc1ccnc2ccc(Cl)cc12 | 4.33
71 | Cc1ccc(NC(=O)c2cccc(N(C)C)c2)cc1NC(=O)c1ccc(OCc2ccccn2)cc1 | 2.83
72 | Cc1cc(Nc2nc(NCc3ccccn3)ncc2Br)n[nH]1 | 2.8
73 | CC(=O)N(C)c1ccc2ccn(-c3cc(NC4CC4)n4ncc(C#N)c4n3)c2c1 | 2.9
74 | CCCSc1nc2ccc(NC(=O)CCC(=O)O)cc2s1 | 0.5
75 | Cn1nnc2c(C(N)=O)ncn2c1=O [TEMOZOLOMIDE] | -1.08
76 | NCCCC(=O)OCCN1CCN(CCCN2c3ccccc3Sc3ccc(Cl)cc32)CC1 [PERPHENAZINE 4-AMINOBUTYRATE] | 1.5
77 | Cc1cnc(-c2ccc(C)c(NC(=O)c3ccc(OCc4ccccn4)cc3)c2)[nH]1 | 3.19
78 | Cc1ccc(C(=O)N2CCC(C(=O)c3ccc(Cl)cc3)CC2)cc1 | 3.79
79 | CC(=O)Nc1ccc(S(=O)(=O)Nc2ccccn2)cc1 | 0.24
80 | c1ccc(CNCCNCc2ccccc2)cc1 | 0.73
81 | CCN(C(=O)Cc1ccc(S(=O)(=O)N(C)C)cc1)C1CCN(CCC(c2ccccc2)c2ccccc2)CC1 | 3.7
82 | O=S1NC(Cc2ccc3ccccc3c2)=NO1 (configuration not stated) | 1.85
83 | NC(=O)c1cc2ccccc2nc1N | 1.07

Row | SMILES | logD
84 | COCCC(=O)NC(C)c1ccc(Nc2ncc3cc(-c4ccncc4)ccc3n2)cc1 (configuration not stated) | 2.98
85 | CC(C)C(NC(=O)Cn1c(-c2cccnc2)ncc(NC(=O)OCc2ccccc2)c1=O)C(=O)C(F)(F)F (configuration not stated) | 2.15
86 | Cc1cc(N)c2cc(NC(=O)CCC(=O)Nc3ccc4nc(C)cc(N)c4c3)ccc2n1 | 1.39
87 | COc1ccc(OC(F)(F)F)cc1CN[C@H]1CCCN[C@H]1c1ccccc1 | 2.9
88 | COc1ccccc1CNC(=O)c1ccc2cnccc2n1 | 1.8
89 | CC(C)CNCc1ccc(-c2ccccc2S(=O)(=O)N2CCCC2)cc1 [PF-04455242] | 1.9
90 | O=C(COc1ccccc1)N1CCOCC1 | 0.75
91 | O=C(COCc1ccncc1)N1CCC(c2ccc(Cl)cc2)CC1 | 2.74
92 | Cc1nc(C)c(-c2ccc3c(c2)CC[C@]32CC[C@@H](c3nnn[nH]3)CC2)nc1C(N)=O | 1.4
93 | CC(=O)N[C@@H](C)c1ccc(Nc2ncc3cc(-c4ccncc4)ccc3n2)cc1 | 3.17
94 | N#Cc1cc(S(=O)(=O)NCC(c2ccccc2)N2CCCCCC2)ccc1F (configuration not stated) | 2.71
95 | O=C1/C(=N\O)c2ccccc2N1Cc1ccccc1[N+](=O)[O-] | 2.07
96 | C[C@@H](NC(=O)[C@H]1CCCCN1)c1ccc(Nc2ncc3cc(-c4ccncc4)ccc3n2)cc1 | 2.15
97 | CCOc1ccccc1-c1ccc2c(c1)C(=O)C(=O)c1ccccc1-2 | 2.67
98 | CCCN(CCC)C(=O)c1cccc(C(=O)N[C@@H](Cc2ccccc2)[C@H](O)CNC2Cc3ccccc3C2)c1 | 3.3
99 | Nc1nc(N)nc(-c2cccc(C(F)(F)F)c2)n1 | 2.4
100 | O=C(COCc1ccncc1)N1CCN(c2ccc(Cl)cc2F)CC1 | 2.55
101 | Cc1ccc(-c2ncc[nH]2)cc1NC(=O)c1ccc(OCc2ccccn2)cc1 | 3.01
102 | COc1cc(N2CCN(C(C)=O)CC2)ccc1Nc1ncc(Cl)c(-c2cnc3cc(C)ccn23)n1 | 3.3
103 | NC1=NC(c2ccc(Cl)c(Cl)c2)CC(=O)N1 (configuration not stated) | 1.46
104 | Cc1ccc2c(n1)c(Sc1ccc(Cl)cc1)c(C)n2CC(=O)O | 0.35
105 | CC(C)C(NC(=O)Cn1c(-c2ccc(F)cc2)ncc(N)c1=O)C(=O)C(F)(F)F (configuration not stated) | 1.05
106 | COc1cc(F)ccc1-c1cncc(CNC(=O)C2CCC2)c1 | 3.2
107 | CC#CCn1c(=O)c2c(-c3cncn3C)n(Cc3ccnc4ccc(Cl)cc34)nc2n(CC2CC2)c1=O | 3.61

Source: ChEMBL document CHEMBL3301361, “Experimental in vitro DMPK and physicochemical data on a set of publicly disclosed compounds”
